The results in this text go back to US6781020B2, “Water soluble bactericide and producing method thereof” (VMC Co., Ltd., priority 2001, dated 2004).

One series concerns the target T1, catalase (Homo sapiens, UniProt P04040).
T1 sequence (P04040 1-527): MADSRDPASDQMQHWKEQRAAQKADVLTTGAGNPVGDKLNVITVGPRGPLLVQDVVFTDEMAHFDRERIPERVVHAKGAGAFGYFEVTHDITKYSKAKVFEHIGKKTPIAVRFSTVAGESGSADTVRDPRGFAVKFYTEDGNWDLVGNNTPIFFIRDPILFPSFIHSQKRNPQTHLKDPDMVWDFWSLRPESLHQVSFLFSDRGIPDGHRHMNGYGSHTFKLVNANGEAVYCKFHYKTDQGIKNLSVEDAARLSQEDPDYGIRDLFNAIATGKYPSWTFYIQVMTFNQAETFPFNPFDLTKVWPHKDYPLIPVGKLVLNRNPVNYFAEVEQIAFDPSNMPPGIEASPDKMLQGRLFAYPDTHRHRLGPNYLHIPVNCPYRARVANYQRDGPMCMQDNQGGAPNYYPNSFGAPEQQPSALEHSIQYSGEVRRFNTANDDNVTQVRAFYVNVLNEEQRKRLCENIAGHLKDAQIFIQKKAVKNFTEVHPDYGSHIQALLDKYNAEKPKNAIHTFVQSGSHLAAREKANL
In words: catalase test, oxidation ability in time sequence by potassium iodide titration. It counts as physicochemical. Conditions: catalase final concentration 0.003%.

For series [1], the system named is standard strain of Staphylococcus aureus. In words: bactericidal ability test, development of bacteria after contact and overnight culture. Conditions: ozone-oxidized glycerin of about 10 unit/g, cultured overnight at 37° C., FIG. 1. It counts as cell-based.
Series [2] has as its system standard strain of Escherichia coli. Described as above. It counts as cell-based. To be noted: ozone-oxidized glycerin of about 10 unit/g, cultured overnight at 37° C., FIG. 1.
Series [3] concerns standard strain of Pseudomonas aeruginosa. The description is as above. Conditions: ozone-oxidized glycerin of about 10 unit/g, cultured overnight at 37° C., FIG. 1. It counts as cell-based.
The subject of series [4] is clinical isolated strain of Salmonella. Conditions: ozone-oxidized glycerin of about 10 unit/g, cultured overnight at 37° C., FIG. 1.

`OO` [hydrogen peroxide]: the “time until the oxidation ability almost disappeared” value on catalase (0.03% hydrogen peroxide solution, FIG. 8 left) worked out at 5 min. Besides, the “attenuation of the oxidation ability due to catalase” value on catalase (FIG. 8) is on record as “rapidly attenuated”.

As for `OCC(O)CO` [glycerin], the bactericidal effects entry in series [1], in series [2], in series [3] and in series [4] was “not recognized” each time.
